The values below come from ChEMBL document CHEMBL5465560, “Selectivity Literature for EUbOPEN Chemogenomic Library” (2024).

Assay [1] addresses Serine/threonine-protein kinase MARK1 (Homo sapiens) (UniProt Q9P0L2). As to the kind of experiment: Selectivity interaction (Upstate Kinase Profiler service (Millipore)) EUB0000056c MARK1. Conditions: at 1 µM.
In assay [2] the target is Maternal embryonic leucine zipper kinase (Homo sapiens) (UniProt Q14680). As to the kind of experiment: Selectivity interaction (ProQinase) EUB0000171b MELK.
Chain of Maternal embryonic leucine zipper kinase (Homo sapiens) (Q14680 whole entry, looked up, canonical isoform): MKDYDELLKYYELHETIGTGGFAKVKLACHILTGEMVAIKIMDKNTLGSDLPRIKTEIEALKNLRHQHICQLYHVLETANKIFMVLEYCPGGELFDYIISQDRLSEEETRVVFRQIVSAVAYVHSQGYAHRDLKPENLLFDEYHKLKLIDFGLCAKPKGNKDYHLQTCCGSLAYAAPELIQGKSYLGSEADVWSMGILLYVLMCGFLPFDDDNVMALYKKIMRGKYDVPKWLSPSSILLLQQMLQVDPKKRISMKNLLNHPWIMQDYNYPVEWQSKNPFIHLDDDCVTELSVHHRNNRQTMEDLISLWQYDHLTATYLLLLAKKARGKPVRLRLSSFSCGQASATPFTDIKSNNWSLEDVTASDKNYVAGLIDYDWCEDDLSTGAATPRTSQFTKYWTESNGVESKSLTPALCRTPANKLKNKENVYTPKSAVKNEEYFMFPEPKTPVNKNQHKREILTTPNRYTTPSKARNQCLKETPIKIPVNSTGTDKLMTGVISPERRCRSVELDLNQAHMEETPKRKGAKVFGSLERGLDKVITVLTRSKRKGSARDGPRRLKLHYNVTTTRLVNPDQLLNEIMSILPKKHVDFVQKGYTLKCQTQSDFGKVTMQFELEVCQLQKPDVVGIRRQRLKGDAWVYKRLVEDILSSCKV
Assay [3] addresses Casein kinase I isoform delta (Homo sapiens, UniProt P48730). The note with it: at 10 µM.
The target of assay [4] is Non-receptor tyrosine-protein kinase TYK2 (Homo sapiens, UniProt P29597). The experiment in a line: Selectivity interaction (Kinase panel (Carna Biosciences)) EUB0001542aTs TYK2. The note with it: at 1 µM.
For another assay, the target named is Mu-type opioid receptor (Homo sapiens, UniProt P35372). As to the kind of experiment: Selectivity interaction (Panel of non-epigenetic targets (kinases, GPCRs, ion channels, and transporters, Eurofins) ) EUB0000271b OPRM1. The note with it: at 1 µM.
Chain of Mu-type opioid receptor (P35372 whole entry): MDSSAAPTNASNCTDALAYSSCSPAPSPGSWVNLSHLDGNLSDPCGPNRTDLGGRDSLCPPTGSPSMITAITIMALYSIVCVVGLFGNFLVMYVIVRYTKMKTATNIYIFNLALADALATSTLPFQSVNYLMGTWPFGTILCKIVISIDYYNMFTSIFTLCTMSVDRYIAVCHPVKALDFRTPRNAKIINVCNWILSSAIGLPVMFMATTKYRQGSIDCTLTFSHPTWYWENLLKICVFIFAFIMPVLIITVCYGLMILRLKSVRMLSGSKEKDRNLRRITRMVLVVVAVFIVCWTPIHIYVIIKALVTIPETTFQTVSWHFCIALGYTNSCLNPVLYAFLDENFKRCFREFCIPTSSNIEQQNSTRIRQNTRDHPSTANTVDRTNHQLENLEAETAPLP
Assay [5] deals with Protein arginine N-methyltransferase 3 (Homo sapiens, UniProt O60678). The experiment in a line: Selectivity interaction (Transferase panel (protein, RNA, and DNA methyltransferases. and EP300 (acetyltransferase))) EUB0000270b PRMT3.
Chain of Protein arginine N-methyltransferase 3 (O60678 2-531 limits assumed): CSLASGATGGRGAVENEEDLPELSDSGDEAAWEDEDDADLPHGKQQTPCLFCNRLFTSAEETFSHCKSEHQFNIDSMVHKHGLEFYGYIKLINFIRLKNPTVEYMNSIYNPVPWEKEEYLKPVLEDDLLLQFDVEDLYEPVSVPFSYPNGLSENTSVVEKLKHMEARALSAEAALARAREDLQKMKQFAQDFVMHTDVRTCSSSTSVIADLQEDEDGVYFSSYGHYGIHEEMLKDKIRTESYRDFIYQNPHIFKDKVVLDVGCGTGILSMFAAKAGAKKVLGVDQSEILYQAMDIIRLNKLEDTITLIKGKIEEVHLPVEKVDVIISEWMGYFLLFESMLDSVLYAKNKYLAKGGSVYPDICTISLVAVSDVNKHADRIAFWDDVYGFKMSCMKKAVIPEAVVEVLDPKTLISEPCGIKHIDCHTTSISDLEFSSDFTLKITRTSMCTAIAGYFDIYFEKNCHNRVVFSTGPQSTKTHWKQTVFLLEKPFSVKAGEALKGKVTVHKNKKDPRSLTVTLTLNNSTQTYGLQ
The target in assay [6] is Activin receptor type-1-like (Homo sapiens) (UniProt P37023). The experiment in a line: Selectivity interaction (KinomeScan (DiscoverX)) EUB0000666a ACVRL1. Conditions: at 10 µM.
For assay [7], the target named is T1, Serine/threonine-protein kinase D2 (Homo sapiens) (UniProt Q9BZL6).
T1 sequence (whole entry): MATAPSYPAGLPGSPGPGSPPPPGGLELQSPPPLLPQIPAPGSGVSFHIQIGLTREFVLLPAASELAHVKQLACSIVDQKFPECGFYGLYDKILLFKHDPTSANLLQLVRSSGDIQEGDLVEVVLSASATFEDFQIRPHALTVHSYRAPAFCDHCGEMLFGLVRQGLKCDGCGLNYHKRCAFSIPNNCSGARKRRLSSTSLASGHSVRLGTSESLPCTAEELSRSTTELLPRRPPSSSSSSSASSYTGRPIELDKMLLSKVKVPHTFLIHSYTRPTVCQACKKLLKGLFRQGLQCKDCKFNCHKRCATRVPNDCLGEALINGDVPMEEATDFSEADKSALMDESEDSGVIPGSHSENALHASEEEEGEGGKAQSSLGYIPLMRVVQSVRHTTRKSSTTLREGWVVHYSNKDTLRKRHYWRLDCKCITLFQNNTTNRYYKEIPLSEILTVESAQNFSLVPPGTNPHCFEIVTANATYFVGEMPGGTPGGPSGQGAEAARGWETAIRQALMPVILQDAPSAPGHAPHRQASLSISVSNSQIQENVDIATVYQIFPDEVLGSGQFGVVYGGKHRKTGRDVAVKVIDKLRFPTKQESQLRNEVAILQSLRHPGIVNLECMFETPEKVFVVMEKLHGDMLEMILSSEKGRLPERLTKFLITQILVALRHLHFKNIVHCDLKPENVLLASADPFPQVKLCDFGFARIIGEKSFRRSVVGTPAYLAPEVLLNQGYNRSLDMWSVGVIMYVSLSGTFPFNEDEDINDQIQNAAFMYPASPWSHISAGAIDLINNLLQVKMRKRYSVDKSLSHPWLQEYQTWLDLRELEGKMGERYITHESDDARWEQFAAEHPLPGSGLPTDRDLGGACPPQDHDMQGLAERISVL
As to the kind of experiment: Selectivity interaction (Kinase panel (Z-LYTE Assay)) EUB0001632a PRKD2. The note with it: at 10 µM.

Assay [8] concerns the target Cyclin-dependent kinase 11B (Homo sapiens) (UniProt P21127). As to the kind of experiment: Selectivity interaction (KinomeScan (DiscoverX)) EUB0000607a CDK11B. Conditions: at 10 µM.
Assay [9] has as its target T2, Serine/threonine-protein kinase 4 (Homo sapiens) (UniProt Q13043).
T2 sequence (whole entry): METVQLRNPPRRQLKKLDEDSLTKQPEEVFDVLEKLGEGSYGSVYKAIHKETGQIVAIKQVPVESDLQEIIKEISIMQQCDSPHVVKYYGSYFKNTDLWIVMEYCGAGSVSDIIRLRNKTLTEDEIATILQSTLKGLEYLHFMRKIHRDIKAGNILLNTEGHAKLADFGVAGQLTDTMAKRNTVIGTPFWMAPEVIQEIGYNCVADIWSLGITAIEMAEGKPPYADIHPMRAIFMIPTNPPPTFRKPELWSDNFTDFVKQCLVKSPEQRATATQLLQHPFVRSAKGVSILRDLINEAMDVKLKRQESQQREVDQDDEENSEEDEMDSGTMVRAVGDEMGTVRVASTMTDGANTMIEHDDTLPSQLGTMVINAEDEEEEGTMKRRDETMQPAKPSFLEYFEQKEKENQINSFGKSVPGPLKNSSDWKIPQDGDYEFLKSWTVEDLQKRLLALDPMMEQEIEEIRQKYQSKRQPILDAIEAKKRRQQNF
The experiment in a line: Selectivity interaction (Kinase panel (Invitrogen)) EUB0000639a STK4. The note with it: at 200 nM.

Assay [10] deals with Proto-oncogene tyrosine-protein kinase ROS (Homo sapiens) (UniProt P08922). The experiment in a line: Selectivity interaction (KinomeScan (DiscoverX)) EUB0000229b ROS1. The note with it: at 10 µM.
The target in assay [11] is Tyrosine-protein kinase BTK (Homo sapiens, UniProt Q06187). The experiment in a line: Selectivity interaction (KinomeScan (DiscoverX)) EUB0001619a BTK. The note with it: at 1 µM.
Assay [12] addresses Phosphatidylinositol 4-kinase alpha (Homo sapiens, UniProt P42356). As to the kind of experiment: Selectivity interaction (ActivX KiNativ screen (ex vivo kinase selectivity in human PBMCs)) EUB0001619a PI4KA. The assay is classed as cell-based. Conditions: PBMC, at 1 µM.
Assay [13] addresses T3, Homeodomain-interacting protein kinase 4 (Homo sapiens) (UniProt Q8NE63).
T3 sequence (whole entry): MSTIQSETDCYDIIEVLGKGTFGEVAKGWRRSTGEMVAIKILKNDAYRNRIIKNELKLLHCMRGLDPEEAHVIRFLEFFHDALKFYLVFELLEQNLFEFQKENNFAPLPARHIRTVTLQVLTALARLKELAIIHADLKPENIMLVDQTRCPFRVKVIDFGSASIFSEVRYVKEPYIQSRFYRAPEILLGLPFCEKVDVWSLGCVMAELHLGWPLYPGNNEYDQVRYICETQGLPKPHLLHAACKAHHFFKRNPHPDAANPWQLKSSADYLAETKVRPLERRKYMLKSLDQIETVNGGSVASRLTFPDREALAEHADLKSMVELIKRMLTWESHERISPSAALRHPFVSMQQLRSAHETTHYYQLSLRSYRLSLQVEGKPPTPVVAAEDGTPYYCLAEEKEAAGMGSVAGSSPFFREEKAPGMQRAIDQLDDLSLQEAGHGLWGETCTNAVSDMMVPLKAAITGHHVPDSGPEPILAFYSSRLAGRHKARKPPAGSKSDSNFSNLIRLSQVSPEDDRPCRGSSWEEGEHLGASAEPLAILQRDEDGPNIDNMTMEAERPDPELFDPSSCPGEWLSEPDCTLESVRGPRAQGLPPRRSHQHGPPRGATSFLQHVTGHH
As to the kind of experiment: Selectivity interaction (KinomeScan (DiscoverX)) EUB0000618a HIPK4. The note with it: at 10 µM.

Chain of Phosphatidylinositol 4-kinase alpha (P42356 whole entry, looked up): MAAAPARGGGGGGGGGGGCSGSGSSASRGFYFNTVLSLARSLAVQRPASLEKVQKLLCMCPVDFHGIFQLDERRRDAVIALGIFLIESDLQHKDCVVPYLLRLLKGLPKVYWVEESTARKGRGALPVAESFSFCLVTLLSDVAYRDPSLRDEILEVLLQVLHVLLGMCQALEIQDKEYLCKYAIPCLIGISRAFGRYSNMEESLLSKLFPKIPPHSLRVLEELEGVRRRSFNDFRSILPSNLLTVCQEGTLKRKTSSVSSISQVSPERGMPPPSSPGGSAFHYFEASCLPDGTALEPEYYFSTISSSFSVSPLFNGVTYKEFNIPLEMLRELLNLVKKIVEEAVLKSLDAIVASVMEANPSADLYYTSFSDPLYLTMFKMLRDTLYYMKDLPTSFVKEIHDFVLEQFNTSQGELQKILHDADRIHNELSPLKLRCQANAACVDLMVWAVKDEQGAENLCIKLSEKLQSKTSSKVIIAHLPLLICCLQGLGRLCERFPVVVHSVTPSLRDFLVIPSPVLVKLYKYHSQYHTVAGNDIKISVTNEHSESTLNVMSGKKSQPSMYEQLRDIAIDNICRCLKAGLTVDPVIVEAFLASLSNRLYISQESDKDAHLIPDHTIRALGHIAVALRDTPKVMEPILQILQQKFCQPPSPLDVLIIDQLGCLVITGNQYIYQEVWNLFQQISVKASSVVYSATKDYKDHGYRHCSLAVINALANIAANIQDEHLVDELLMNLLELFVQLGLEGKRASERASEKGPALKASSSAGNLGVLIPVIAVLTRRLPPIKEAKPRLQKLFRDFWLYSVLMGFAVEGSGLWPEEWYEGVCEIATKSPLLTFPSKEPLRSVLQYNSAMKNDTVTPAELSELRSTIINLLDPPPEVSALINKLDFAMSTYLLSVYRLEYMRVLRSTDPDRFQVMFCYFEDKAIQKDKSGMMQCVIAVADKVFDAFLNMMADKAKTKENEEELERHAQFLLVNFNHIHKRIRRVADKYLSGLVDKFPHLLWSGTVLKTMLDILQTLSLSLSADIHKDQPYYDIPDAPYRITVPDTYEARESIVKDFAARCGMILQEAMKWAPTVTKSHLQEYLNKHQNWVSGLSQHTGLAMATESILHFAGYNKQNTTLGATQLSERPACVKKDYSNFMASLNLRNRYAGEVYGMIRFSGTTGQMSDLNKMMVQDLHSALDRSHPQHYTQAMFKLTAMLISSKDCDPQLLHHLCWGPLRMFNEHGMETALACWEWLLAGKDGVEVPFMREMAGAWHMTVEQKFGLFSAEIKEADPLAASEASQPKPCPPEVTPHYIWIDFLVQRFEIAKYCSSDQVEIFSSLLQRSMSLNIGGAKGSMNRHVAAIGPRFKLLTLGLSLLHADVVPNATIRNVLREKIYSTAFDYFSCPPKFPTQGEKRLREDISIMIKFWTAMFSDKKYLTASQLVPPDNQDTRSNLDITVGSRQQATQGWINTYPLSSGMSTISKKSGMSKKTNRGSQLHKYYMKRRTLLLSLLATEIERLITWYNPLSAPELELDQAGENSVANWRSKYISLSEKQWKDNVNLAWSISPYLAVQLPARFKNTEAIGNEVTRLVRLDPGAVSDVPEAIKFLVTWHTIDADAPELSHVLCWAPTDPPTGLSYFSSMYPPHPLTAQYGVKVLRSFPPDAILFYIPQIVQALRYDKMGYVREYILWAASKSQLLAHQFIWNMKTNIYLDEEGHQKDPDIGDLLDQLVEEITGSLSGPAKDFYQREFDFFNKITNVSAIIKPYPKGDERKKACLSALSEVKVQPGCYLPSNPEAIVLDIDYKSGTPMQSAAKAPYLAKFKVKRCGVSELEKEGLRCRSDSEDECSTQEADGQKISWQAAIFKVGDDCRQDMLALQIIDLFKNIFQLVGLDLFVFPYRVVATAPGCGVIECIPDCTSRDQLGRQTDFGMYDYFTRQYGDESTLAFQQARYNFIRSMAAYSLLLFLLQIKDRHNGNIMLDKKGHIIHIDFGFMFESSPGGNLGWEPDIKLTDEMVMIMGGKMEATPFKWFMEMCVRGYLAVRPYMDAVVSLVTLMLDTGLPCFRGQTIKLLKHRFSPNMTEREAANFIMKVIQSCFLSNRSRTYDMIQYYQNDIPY
Chain of Cyclin-dependent kinase 11B (Homo sapiens) (P21127 whole entry): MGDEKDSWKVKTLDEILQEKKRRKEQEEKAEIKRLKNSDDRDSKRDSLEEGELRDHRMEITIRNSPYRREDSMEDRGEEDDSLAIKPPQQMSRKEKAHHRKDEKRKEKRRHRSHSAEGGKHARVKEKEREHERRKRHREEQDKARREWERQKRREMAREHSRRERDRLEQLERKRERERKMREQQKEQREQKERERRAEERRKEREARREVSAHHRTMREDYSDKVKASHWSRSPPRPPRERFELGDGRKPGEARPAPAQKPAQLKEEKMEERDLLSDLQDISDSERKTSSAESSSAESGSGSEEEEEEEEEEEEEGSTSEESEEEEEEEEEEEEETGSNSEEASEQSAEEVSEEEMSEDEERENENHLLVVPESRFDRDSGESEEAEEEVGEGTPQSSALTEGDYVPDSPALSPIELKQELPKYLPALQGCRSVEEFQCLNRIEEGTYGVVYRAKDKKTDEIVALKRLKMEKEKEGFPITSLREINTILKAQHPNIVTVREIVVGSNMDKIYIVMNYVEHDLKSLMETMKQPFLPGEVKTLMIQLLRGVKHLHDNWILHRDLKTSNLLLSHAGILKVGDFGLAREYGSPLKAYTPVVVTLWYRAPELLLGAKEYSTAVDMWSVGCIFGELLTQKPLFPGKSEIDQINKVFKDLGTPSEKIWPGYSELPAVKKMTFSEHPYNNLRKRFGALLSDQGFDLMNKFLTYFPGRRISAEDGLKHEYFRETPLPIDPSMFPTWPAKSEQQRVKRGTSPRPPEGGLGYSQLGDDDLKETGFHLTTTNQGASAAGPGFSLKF
Chain of Casein kinase I isoform delta (P48730 whole entry, looked up, canonical isoform): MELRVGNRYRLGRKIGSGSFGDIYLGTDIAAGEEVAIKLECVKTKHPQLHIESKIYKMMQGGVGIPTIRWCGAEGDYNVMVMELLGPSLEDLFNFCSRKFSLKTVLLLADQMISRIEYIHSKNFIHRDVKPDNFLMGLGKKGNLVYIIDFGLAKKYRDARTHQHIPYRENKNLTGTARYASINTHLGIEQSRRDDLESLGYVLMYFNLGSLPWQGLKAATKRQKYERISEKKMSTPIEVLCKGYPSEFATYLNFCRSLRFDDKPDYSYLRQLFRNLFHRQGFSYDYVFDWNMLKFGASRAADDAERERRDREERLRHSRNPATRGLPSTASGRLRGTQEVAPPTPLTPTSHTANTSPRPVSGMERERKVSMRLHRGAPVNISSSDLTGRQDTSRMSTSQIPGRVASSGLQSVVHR

Turning to `Cc1ccc(-c2ccc3c(ccc4sc5c(c43)NC[C@@H](C)NC5=O)n2)cn1`, in assay [1], the % of inhibition stood at 5%.

On to `C=CC(=O)Nc1cccc(C(=O)Nc2ccc(Nc3cc(-c4[nH]c(SC)nc4C)ccn3)cc2)c1`, for which the figures for the % of control in [2] (at 1 µM) and in assay [2] (at 5 µM) were 95% and 70%, respectively.

For the compound `Cc1cc([C@@H](C)Nc2ccccc2C(=O)O)c2nc(N3CCOCC3)cc(=O)n2c1` [AZD-6482], in assay [3], the % of control came to 86%.

`Cn1cc(Nc2nccc(N3CC4CCC(C3)N4C(=O)[C@@H]3CC3(F)F)n2)cn1`: in assay [4], the % of inhibition was 101%.

With `Cc1cc(C)cc([C@@H]2c3cc(C)ccc3NC(=O)CN2C(=O)c2ccc(Br)s2)c1`, on Mu-type opioid receptor, the % of inhibition stood at 4%.

As for `Cc1cc(CN)cc(C)c1-c1ncn(C)c1-c1cncn1C`, the % activity in assay [5] (at 1 µM) was > 90%; in assay [5] (at 10 µM), > 80%.

Compound `O=C(NOC[C@H](O)CO)c1ccc(F)c(F)c1Nc1ccc(I)cc1F` had a % of control in [6] of 100%.

For the compound `Cn1cc(-n2cnc3c(NCc4nc5cc(Cl)c(Cl)cc5[nH]4)nc(N4CCOCC4)nc32)cn1`, the % of control in [7] stood at 0.629%.

As to `CNC(=O)Nc1ccc(-c2nc(N3CC4CCC(C3)O4)c3cnn(C4CCC5(CC4)OCCO5)c3n2)cc1`, the % of control in [8] is 100%.

Turning to `CC[C@@H]1[C@H](F)C(=O)N[C@@H]1COc1nccc2cc(C(N)=O)c(OC)cc12` [ZIMLOVISERTIB], in assay [9], the % of inhibition came out at 13.8%.

Turning to `COc1cc(N(C)c2ccnc3ccc(C(F)(F)F)cc23)cc(OC)c1OC`, the % binding in assay [10] stood at 86%.

In assay [11], `N#Cc1cccc(-c2c[nH]c3ncnc(N4CCOCC4)c23)c1` gave a % of control of 100%. Besides, in assay [12], the % of inhibition was found to be 6%.

In [13], `O[C@H]1CC[C@H](Nc2ncc3nc(Nc4c(F)cc(F)cc4F)n([C@H]4CCOC4)c3n2)CC1` returned a % of control of 98%.
